Results as given in US9156811B2 (priority 2008, dated 2015).
Read-outs that look alike come from different tables or passages of the source.

Columns and labels:
[1] = test system: Trypanosome (T. brucei brucei); assay: In-vitro antitrypanosomal efficacy assay (cell growth, resazurin); assay type: cell-based; details: T. brucei cell growth
Protocol: To column 12, 200 μl media was added to provide a no cells control. Plates were then incubated at 37° C. in an atmosphere of 5% CO2 for 69 hours, before the addition of 20 μl of 500 μM rezasurin solution, and a further incubation period of 4 hours. […] Concentration effect curves were fitted using non-linear regression using XLFit 4.2 and EC50 values determined.

HT29 = assay: In-vitro antiproliferative assay, HT29; assay type: cell-based, human; details: Homo sapiens, HT-29, 72 h
HCT116 = assay: In-vitro antiproliferative assay, HCT116; assay type: cell-based, human; details: Homo sapiens, HCT-116, 72 h, read-out: IC50 HCT116
NCI-H1299 = assay: In-vitro antiproliferative assay, NCI-H1299; assay type: cell-based; details: Homo sapiens, NCI-H1299, 72 h, read-out: IC50 NCI-H1299
MDA-MB-231 = assay: In-vitro antiproliferative assay, MDA-MB-231; assay type: cell-based, human; details: Homo sapiens, MDA-MB-231, 72 h, read-out: IC50 MDA-MB-231
OE19 = assay: In-vitro antiproliferative assay, OE19; assay type: cell-based; details: Homo sapiens, OE19, 72 h, read-out: IC50 OE19
OE21 = assay: In-vitro antiproliferative assay, OE21; assay type: cell-based; details: Homo sapiens, OE21, 72 h, read-out: IC50 OE21
C6 = assay: In-vitro antiproliferative assay, C6; details: C6, 72 h, read-out: IC50 C6
H460 = assay: In-vitro antiproliferative assay, H460; details: Homo sapiens, NCI-H460, 72 h, read-out: IC50 H460
MRC5 = assay: In-vitro antiproliferative assay, MRC5; details: Homo sapiens, MRC5, 72 h, read-out: IC50 MRC5
A549 = assay: In-vitro antiproliferative assay, A549; details: Homo sapiens, A549, 72 h, read-out: IC50 A549
SkBr3 = assay: In-vitro antiproliferative assay, SkBr3; details: Homo sapiens, SK-BR-3, 72 h, read-out: IC50 SkBr3
RT112 = assay: In-vitro antiproliferative assay, RT112; details: Homo sapiens, RT-112, 72 h, read-out: IC50 RT112
HT1080 = assay: In-vitro antiproliferative assay, HT1080; details: Homo sapiens, HT-1080, 72 h, read-out: IC50 HT1080

How did the “ED50 (μM) T. brucei” value [1] turn out when `Cc1nn(C)c(C)c1N[S+](=O)([O-])c1c(Cl)cc(-c2ccnc(N3CCNCC3)c2)cc1Cl` [DDD85646, 2,6-Dichloro-4-(2-piperazin-1-yl-pyridin-4-yl)-N-(1,3,5-trimethyl-1H-pyrazol-4-yl)-benzenesulfonamide] was run?
The value was 0.001 µM.

What about the IC50 (HT29; read-out: IC50 HT29) of the same molecule?
The IC50 was 112 nM.

What about the IC50 (HT29; read-out: IC50 HT-29) of the same molecule?
Its IC50 is 112 nM.

And the IC50 (HCT116)?
Its IC50 is 234 nM.

And the IC50 (NCI-H1299)?
The IC50 was 570 nM.

And the IC50 (MDA-MB-231)?
Its IC50 is 230 nM.

And the IC50 (OE19)?
The IC50 was 660 nM.

And the IC50 (OE21)?
Its IC50 is 290 nM.

What about the IC50 (C6) of the same molecule?
The IC50 was 1160 nM.

And the IC50 (H460)?
Its IC50 is 1320 nM.

What about the IC50 (MRC5) of the same molecule?
Its IC50 is 123 nM.

And the IC50 (A549)?
Its IC50 is 157 nM.

And the IC50 (SkBr3)?
Its IC50 is 108 nM.

And the IC50 (RT112)?
The IC50 was 330 nM.

What about the IC50 (HT1080) of the same molecule?
Its IC50 is 60 nM.
